Laboratory results as given in PubChem BioAssay AID330 (DTP/NCI, 2004).
Where “and” joins values, the source holds several entries; their conditions need not be identical. Identical values can stand only once. Toxic doses and inconclusive results are not listed.

Test system: P388 leukemia ip, CD2F1 mice, survival T/C
Test: NCI In Vivo Anticancer Drug Screen. Data for tumor model P388 Leukemia (intraperitoneal) in CD2F1 (CDF1) mice
Conditions: endpoint: median survival time, higher = longer survival
Summary of the method: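 Mice carrying the transplanted tumor received test compound or vehicle. Survival was recorded in each group, and the value is the treated-group measurement divided by that of the vehicle-treated control group.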

## COc1cccc2c1C(=O)c1c(O)c3c(c(O)c1C2=O)C[C@@](O)(C(=O)CO)C[C@@H]3OC1CC(N)C(O)C(C)O1 (stereo partly drawn)
dose: 0.04 mg/kg/injection, schedule: Q04DX003 (ip), vehicle: saline
  T/C: 116 % of control
dose: 0.04 mg/kg/injection, schedule: Q04DX003 (ip), vehicle: water
  T/C: 115 % of control
dose: 0.06 mg/kg/injection, schedule: Q01DX005 (sc), vehicle: water
  T/C: 100 % of control
dose: 0.06 mg/kg/injection, schedule: Q03HX008 (ip), vehicle: saline
  T/C: 114 % of control
dose: 0.06 mg/kg/injection, schedule: Q04DX003 (ip), vehicle: water
  T/C: 122 % of control
dose: 0.1 mg/kg/injection, schedule: Q04DX003 (ip), vehicle: water
  T/C: 121 % of control
dose: 0.12 mg/kg/injection, schedule: Q01DX005 (sc), vehicle: water
  T/C: 101 % of control
dose: 0.13 mg/kg/injection, schedule: Q01DX009 (ip), vehicle: water
  T/C: 162 % of control
dose: 0.13 mg/kg/injection, schedule: Q03HX008 (ip), vehicle: saline
  T/C: 116 % of control
dose: 0.25 mg/kg/injection, schedule: Q01DX001 (ip), vehicle: Klucel (hydroxypropylcellulose) (HPC)
  T/C: 108 % of control
dose: 0.25 mg/kg/injection, schedule: Q01DX001 (ip), vehicle: saline with Tween-80
  T/C: 112 % of control
dose: 0.25 mg/kg/injection, schedule: Q01DX001 (ip), vehicle: saline
  T/C: 105 % of control
dose: 0.25 mg/kg/injection, schedule: Q01DX005 (ip), vehicle: water
  T/C: 153 % of control and 160 % of control and 161 % of control
dose: 0.25 mg/kg/injection, schedule: Q01DX005 (sc), vehicle: water
  T/C: 103 % of control
dose: 0.3 mg/kg/injection, schedule: Q04DX003 (ip), vehicle: water
  T/C: 153 % of control
dose: 0.38 mg/kg/injection, schedule: Q01DX009 (ip), vehicle: water
  T/C: 151 % of control
dose: 0.38 mg/kg/injection, schedule: Q04DX003 (ip), vehicle: water
  T/C: 103 % of control
dose: 0.44 mg/kg/injection, schedule: Q04DX003 (ip), vehicle: saline
  T/C: 158 % of control
dose: 0.5 mg/kg/injection, schedule: Q01DX001 (ip), vehicle: Klucel (hydroxypropylcellulose) (HPC)
  T/C: 112 % of control
dose: 0.5 mg/kg/injection, schedule: Q01DX001 (ip), vehicle: saline with Tween-80
  T/C: 115 % of control
dose: 0.5 mg/kg/injection, schedule: Q01DX005 (oral), vehicle: water
  T/C: 108 % of control
dose: 0.5 mg/kg/injection, schedule: Q01DX005 (sc), vehicle: water
  T/C: 108 % of control
dose: 0.58 mg/kg/injection, schedule: Q04DX003 (ip), vehicle: saline
  T/C: 159 % of control
dose: 0.62 mg/kg/injection, schedule: Q01DX001 (ip), vehicle: water
  T/C: 159 % of control
dose: 0.63 mg/kg/injection, schedule: Q01DX001 (ip), vehicle: water
  T/C: 154 % of control
dose: 0.75 mg/kg/injection, schedule: Q04DX003 (ip), vehicle: water
  T/C: 118 % of control
dose: 0.97 mg/kg/injection, schedule: Q04DX002 (ip), vehicle: saline
  T/C: 157 % of control and 160 % of control
dose: 0.97 mg/kg/injection, schedule: Q04DX003 (ip), vehicle: water
  T/C: 163 % of control
dose: 1.0 mg/kg/injection, schedule: Q01DX001 (ip), vehicle: Klucel (hydroxypropylcellulose) (HPC)
  T/C: 110 % of control
dose: 1.0 mg/kg/injection, schedule: Q01DX001 (ip), vehicle: saline with Tween-80
  T/C: 119 % of control
dose: 1.0 mg/kg/injection, schedule: Q01DX001 (iv), vehicle: saline
  T/C: 113 % of control
dose: 1.0 mg/kg/injection, schedule: Q01DX005 (oral), vehicle: water
  T/C: 112 % of control
dose: 1.0 mg/kg/injection, schedule: Q01DX005 (sc), vehicle: water
  T/C: 113 % of control
dose: 1.0 mg/kg/injection, schedule: Q04DX003 (iv), vehicle: saline
  T/C: 100 % of control
dose: 1.04 mg/kg/injection, schedule: Q04DX002 (ip), vehicle: saline
  T/C: 161 % of control
dose: 1.08 mg/kg/injection, schedule: Q04DX003 (ip), vehicle: saline
  T/C: 159 % of control
dose: 1.3 mg/kg/injection, schedule: Q01DX001 (ip), vehicle: water
  T/C: 156 % of control
dose: 1.5 mg/kg/injection, schedule: Q04DX003 (ip), vehicle: water
  T/C: 117 % of control and 120 % of control
dose: 1.8 mg/kg/injection, schedule: Q01DX001 (ip), vehicle: saline
  T/C: 154 % of control
dose: 2.0 mg/kg/injection, schedule: Q01DX001 (ip), vehicle: DMSO
  T/C: 157 % of control
dose: 2.0 mg/kg/injection, schedule: Q01DX001 (ip), vehicle: Klucel (hydroxypropylcellulose) (HPC)
  T/C: 122 % of control
dose: 2.0 mg/kg/injection, schedule: Q01DX001 (iv), vehicle: saline
  T/C: 108 % of control
dose: 2.0 mg/kg/injection, schedule: Q01DX005 (oral), vehicle: water
  T/C: 104 % of control
dose: 2.0 mg/kg/injection, schedule: Q03HX008 (ip), vehicle: saline
  T/C: 162 % of control
dose: 2.0 mg/kg/injection, schedule: Q04DX003 (iv), vehicle: saline
  T/C: 114 % of control
dose: 2.1 mg/kg/injection, schedule: Q01DX004 (ip), vehicle: saline
  T/C: 161 % of control
dose: 2.59 mg/kg/injection, schedule: Q01DX001 (ip), vehicle: saline
  T/C: 160 % of control
dose: 3.0 mg/kg/injection, schedule: Q01DX001 (ip), vehicle: saline
  T/C: 154 % of control
dose: 3.0 mg/kg/injection, schedule: Q04DX003 (ip), vehicle: water
  T/C: 120 % of control
dose: 3.7 mg/kg/injection, schedule: Q01DX001 (ip), vehicle: saline
  T/C: 153 % of control
dose: 4.0 mg/kg/injection, schedule: Q01DX001 (ip), vehicle: DMSO
  T/C: 162 % of control
dose: 4.0 mg/kg/injection, schedule: Q01DX001 (ip), vehicle: saline with Tween-80
  T/C: 122 % of control
dose: 4.0 mg/kg/injection, schedule: Q01DX001 (iv), vehicle: saline
  T/C: 123 % of control
dose: 4.0 mg/kg/injection, schedule: Q01DX005 (oral), vehicle: water
  T/C: 105 % of control
dose: 4.5 mg/kg/injection, schedule: Q04DX003 (iv), vehicle: saline
  T/C: 163 % of control
dose: 4.75 mg/kg/injection, schedule: Q01DX001 (ip), vehicle: saline
  T/C: 163 % of control
dose: 5.0 mg/kg/injection, schedule: Q01DX009 (ip), vehicle: saline
  T/C: 98 % of control and 105 % of control
dose: 5.4 mg/kg/injection, schedule: Q04DX003 (ip), vehicle: saline
  T/C: 150 % of control
dose: 5.4 mg/kg/injection, schedule: Q04DX003 (ip), vehicle: water
  T/C: 115 % of control
dose: 6.0 mg/kg/injection, schedule: Q04DX003 (ip), vehicle: water
  T/C: 154 % of control
dose: 6.0 mg/kg/injection, schedule: Q04DX003 (oral), vehicle: saline
  T/C: 98 % of control
dose: 6.33 mg/kg/injection, schedule: Q01DX001 (iv), vehicle: saline
  T/C: 116 % of control
dose: 8.0 mg/kg/injection, schedule: Q01DX001 (oral), vehicle: saline
  T/C: 98 % of control
dose: 8.0 mg/kg/injection, schedule: Q01DX005 (oral), vehicle: water
  T/C: 107 % of control
dose: 8.0 mg/kg/injection, schedule: Q04DX002 (ip), vehicle: saline
  T/C: 108 % of control
dose: 10.0 mg/kg/injection, schedule: Q04DX003 (oral), vehicle: saline
  T/C: 105 % of control
dose: 11.25 mg/kg/injection, schedule: Q01DX001 (iv), vehicle: saline
  T/C: 156 % of control
dose: 12.0 mg/kg/injection, schedule: Q01DX001 (oral), vehicle: saline
  T/C: 106 % of control
dose: 15.0 mg/kg/injection, schedule: Q04DX003 (iv), vehicle: saline
  T/C: 153 % of control
dose: 16.0 mg/kg/injection, schedule: Q01DX001 (ip), vehicle: saline with Tween-80
  T/C: 151 % of control
dose: 16.0 mg/kg/injection, schedule: Q01DX001 (oral), vehicle: saline
  T/C: 100 % of control
dose: 16.0 mg/kg/injection, schedule: Q01DX005 (oral), vehicle: water
  T/C: 103 % of control
dose: 16.0 mg/kg/injection, schedule: Q04DX003 (iv), vehicle: saline
  T/C: 103 % of control
dose: 16.7 mg/kg/injection, schedule: Q04DX003 (oral), vehicle: saline
  T/C: 107 % of control and 112 % of control
dose: 17.5 mg/kg/injection, schedule: Q01DX001 (ip), vehicle: saline
  T/C: 150 % of control
dose: 20.0 mg/kg/injection, schedule: Q01DX001 (oral), vehicle: saline
  T/C: 103 % of control
dose: 27.8 mg/kg/injection, schedule: Q04DX003 (oral), vehicle: saline
  T/C: 100 % of control and 106 % of control
dose: 32.0 mg/kg/injection, schedule: Q01DX001 (ip), vehicle: Klucel (hydroxypropylcellulose) (HPC)
  T/C: 112 % of control
dose: 32.0 mg/kg/injection, schedule: Q01DX001 (ip), vehicle: saline with Tween-80
  T/C: 161 % of control
dose: 32.0 mg/kg/injection, schedule: Q01DX001 (oral), vehicle: saline
  T/C: 100 % of control
dose: 33.3 mg/kg/injection, schedule: Q01DX001 (oral), vehicle: saline
  T/C: 99 % of control and 106 % of control
dose: 46.3 mg/kg/injection, schedule: Q04DX003 (oral), vehicle: saline
  T/C: 103 % of control and 112 % of control
dose: 64.0 mg/kg/injection, schedule: Q01DX001 (oral), vehicle: saline
  T/C: 107 % of control
dose: 77.2 mg/kg/injection, schedule: Q04DX003 (oral), vehicle: saline
  T/C: 101 % of control
dose: 92.6 mg/kg/injection, schedule: Q01DX001 (oral), vehicle: saline
  T/C: 106 % of control
dose: 128.0 mg/kg/injection, schedule: Q01DX001 (oral), vehicle: saline
  T/C: 100 % of control
dose: 128.6 mg/kg/injection, schedule: Q04DX003 (oral), vehicle: saline
  T/C: 99 % of control
dose: 154.3 mg/kg/injection, schedule: Q01DX001 (oral), vehicle: saline
  T/C: 101 % of control
